Here are results for 20 compounds from patent US20260327191A1, “GSK3a INHIBITORS AND METHODS OF USE THEREOF” (Blueprint Medicines Corporation, priority 2023, published 2026).

Structures are written as SMILES.

Assay [1] addresses T1, GSK3B (Homo sapiens, UniProt P49841). Description: In vitro enzymatic activity assay, GSK3β. The note with it: 1.0 mM ATP, 1.0 μM peptide substrate, 120 min, 25° C, read-out: Enzyme GSK3β (IC50). Also noted: Full length human GSK3α or GSK3B expressed as N-terminal GST fusion proteins; GST (N); purchased Carna Biosciences (Japan); host or cells: baculovirus host. The assay is classed as biochemical.

The next assay addresses T2, human GSK3α (Homo sapiens, UniProt P49840).
T2 construct: Full length human GSK3α or GSK3B expressed as N-terminal GST fusion proteins; GST (N); purchased Carna Biosciences (Japan); host or cells: baculovirus host
Description: In vitro enzymatic activity assay, GSK3α. The assay is classed as biochemical. The note with it: 1.0 mM ATP, 1.0 μM peptide substrate, 120 min, 25° C, read-out: Enzyme GSK3α (IC50).

Assay [2] has as its target T1, GSK3B. In words: NanoBRET cellular target engagement assay, Nanoluc-GSK3B in HEK293 cells. The assay is classed as cell-based. Set-up: expressed in transfected cells. The note with it: NanoBRET GSK3β IC50, HEK293 cells, tracer K-8, 2 hours, 37° C.
A further assay concerns the target T3, GSK3A (Homo sapiens, UniProt P49840).
T3 construct: expressed in transfected cells
Description: NanoBRET cellular target engagement assay, Nanoluc-GSK3A in HEK293 cells. The assay is classed as cell-based. As to conditions: NanoBRET GSK3α IC50, HEK293 cells, tracer K-8, 2 hours, 37° C. (BRET reads energy transfer from a luciferase to a nearby fluorophore.)

T2 sequence (P49840 whole entry, the tested form may be a part): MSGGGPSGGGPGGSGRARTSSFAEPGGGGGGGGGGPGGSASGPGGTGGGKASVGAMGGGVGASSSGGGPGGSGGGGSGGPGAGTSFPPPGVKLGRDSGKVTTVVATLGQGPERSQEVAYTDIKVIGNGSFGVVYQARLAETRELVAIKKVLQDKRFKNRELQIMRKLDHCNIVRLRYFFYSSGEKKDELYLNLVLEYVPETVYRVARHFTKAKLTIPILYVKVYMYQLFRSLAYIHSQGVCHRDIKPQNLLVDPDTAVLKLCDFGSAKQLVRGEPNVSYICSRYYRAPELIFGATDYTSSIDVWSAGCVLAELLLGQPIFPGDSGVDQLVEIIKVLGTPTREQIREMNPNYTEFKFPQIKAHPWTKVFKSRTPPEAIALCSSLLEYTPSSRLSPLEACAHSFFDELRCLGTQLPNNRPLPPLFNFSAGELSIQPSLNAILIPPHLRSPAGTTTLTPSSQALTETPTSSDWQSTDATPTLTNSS
T3 sequence (P49840 whole entry): as the sequence (P49840 whole entry, the tested form may be a part) above
T1 sequence (P49841 whole entry, the tested form may be a part): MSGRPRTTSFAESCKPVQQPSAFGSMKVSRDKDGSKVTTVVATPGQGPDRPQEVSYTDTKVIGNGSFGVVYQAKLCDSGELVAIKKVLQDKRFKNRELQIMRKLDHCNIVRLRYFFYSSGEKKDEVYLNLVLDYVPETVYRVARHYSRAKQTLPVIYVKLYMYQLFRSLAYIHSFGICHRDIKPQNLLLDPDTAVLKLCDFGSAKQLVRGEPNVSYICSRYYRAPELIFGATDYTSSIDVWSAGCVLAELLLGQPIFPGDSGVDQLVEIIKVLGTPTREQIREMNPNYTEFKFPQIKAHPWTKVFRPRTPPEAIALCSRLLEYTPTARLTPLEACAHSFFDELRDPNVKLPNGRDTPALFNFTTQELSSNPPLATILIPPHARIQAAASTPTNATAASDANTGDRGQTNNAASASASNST

Consider `COCc1cc(C)c(-n2cnc(N)c(C(=O)Nc3cnnc(C(N)=O)c3)c2=O)c(C)c1` [Example 30, 5-(4-amino-1-(4-(methoxymethyl)-2,6-dimethylphenyl)-6-oxo-1,6-dihydropyrimidine-5-carboxamido)pyridazine-3-carboxamide], for which the IC50 (commonly the point on the concentration scale where inhibition reaches its midpoint) at GSK3B [1] came out at 1950 nM; at human GSK3α it was 63.9 nM; against GSK3B [2], 15800 nM; at GSK3A, 72.2 nM.

Turning to `COc1cc(Cl)c(-n2cnc(N)c(C(=O)Nc3cncc([C@@H]4CCCCN4)c3)c2=O)c(Cl)c1` [Example 34, (S)-4-amino-1-(2,6-dichloro-4-methoxyphenyl)-6-oxo-N-(5-(piperidin-2-yl)pyridin-3-yl)-1,6-dihydropyrimidine-5-carboxamide], the IC50 on GSK3B [1] turned out to be 344 nM; on human GSK3α it was 6.5 nM; at GSK3B [2], 268 nM; against GSK3A, 3.7 nM.

With `COc1cc(C)c(-n2cnc(N)c(C(=O)Nc3cccc(C4(N)CCC4)c3)c2=O)c(Cl)c1` [Example 38, 4-amino-N-(3-(1-aminocyclobutyl)phenyl)-1-((S)-2-chloro-4-methoxy-6-methylphenyl)-6-oxo-1,6-dihydropyrimidine-5-carboxamide], the IC50 on GSK3B [1] is 282 nM; at human GSK3α, 4.6 nM; against GSK3B [2], 230 nM; at GSK3A it was 3.6 nM.

In the case of `Nc1ncn(-c2c(Cl)cccc2Cl)c(=O)c1C(=O)Nc1cncc([C@@H]2CCCN2)c1` [Example 40, (S)-4-amino-1-(2,6-dichlorophenyl)-6-oxo-N-(5-(pyrrolidin-2-yl)pyridin-3-yl)-1,6-dihydropyrimidine-5-carboxamide], the IC50 came out at 418 nM at GSK3B [1], 10.1 nM on human GSK3α, 431 nM against GSK3B [2] and 5.8 nM against GSK3A.

Consider `Cc1cc(Cl)c(-n2cnc(N)c(C(=O)Nc3cncc([C@@H]4CCCN4)c3)c2=O)c(Cl)c1` [Example 45, (S)-4-amino-1-(2,6-dichloro-4-methylphenyl)-6-oxo-N-(5-(pyrrolidin-2-yl)pyridin-3-yl)-1,6-dihydropyrimidine-5-carboxamide], for which the IC50 at GSK3B [1] was determined as 384 nM; on human GSK3α, 8.5 nM; at GSK3B [2] it was 365 nM; against GSK3A it was 6.6 nM.

Take `Nc1ncn(-c2c(Cl)cc(OC(F)F)cc2Cl)c(=O)c1C(=O)Nc1cncc([C@@H]2CCCCN2)c1` [Example 46, (S)-4-amino-1-(2,6-dichloro-4-(difluoromethoxy)phenyl)-6-oxo-N-(5-(piperidin-2-yl)pyridin-3-yl)-1,6-dihydropyrimidine-5-carboxamide]: the IC50 at GSK3B [1] turned out to be 489 nM; on human GSK3α, 10.5 nM; against GSK3B [2] it was 395 nM; on GSK3A, 7.3 nM.

As to `Nc1ncn(-c2c(Cl)cc(Cl)cc2Cl)c(=O)c1C(=O)Nc1cncc([C@@H]2CCCCN2)c1` [Example 48, (S)-4-amino-6-oxo-N-(5-(piperidin-2-yl)pyridin-3-yl)-1-(2,4,6-trichlorophenyl)-1,6-dihydropyrimidine-5-carboxamide], the IC50 on GSK3B [1] is 343 nM; on human GSK3α, 5.2 nM; at GSK3B [2] it was 298 nM; on GSK3A, 4.7 nM.

Take `NCc1cncc(NC(=O)c2c(N)ncn(-c3c(Cl)cc(OC4CC4)cc3Cl)c2=O)c1` [Example 52, 4-amino-N-(5-(aminomethyl)pyridin-3-yl)-1-(2,6-dichloro-4-cyclopropoxyphenyl)-6-oxo-1,6-dihydropyrimidine-5-carboxamide]: the concentration for half-maximal inhibition (IC50) came out at 209 nM at GSK3B [1], 4.4 nM on human GSK3α, 132 nM at GSK3B [2] and 2.5 nM on GSK3A.

In the case of `Nc1ncn(-c2c(Cl)cc(C(F)F)cc2Cl)c(=O)c1C(=O)Nc1cccc([C@@H]2CCCN2)c1` [Example 54, (S)-4-amino-1-(2,6-dichloro-4-(difluoromethyl)phenyl)-6-oxo-N-(3-(pyrrolidin-2-yl)phenyl)-1,6-dihydropyrimidine-5-carboxamide], the IC50 was determined as 345 nM at GSK3B [1], 5.4 nM on human GSK3α, 340 nM against GSK3B [2] and 5.4 nM against GSK3A.

For the compound `Nc1ncn(-c2c(Cl)cc(C(F)F)cc2Cl)c(=O)c1C(=O)Nc1cncc([C@@H]2CCCN2)c1` [Example 55, (S)-4-amino-1-(2,6-dichloro-4-(difluoromethyl)phenyl)-6-oxo-N-(5-(pyrrolidin-2-yl)pyridin-3-yl)-1,6-dihydropyrimidine-5-carboxamide], the IC50 at GSK3B [1] came to 430 nM; on human GSK3α, 9.1 nM; at GSK3B [2] it was 483 nM; on GSK3A it was 6.5 nM.

As to `Nc1ncn(-c2c(Cl)cc(C(F)F)cc2Cl)c(=O)c1C(=O)Nc1cncc([C@@H]2CCCCN2)c1` [Example 56, (S)-4-amino-1-(2,6-dichloro-4-(difluoromethyl)phenyl)-6-oxo-N-(5-(piperidin-2-yl)pyridin-3-yl)-1,6-dihydropyrimidine-5-carboxamide], the IC50 at GSK3B [1] stood at 323 nM; on human GSK3α it was 5.7 nM; against GSK3B [2] it was 273 nM; at GSK3A, 4.8 nM.

Consider `CCNCc1cncc(NC(=O)c2c(N)ncn(-c3c(Cl)cc(COC)cc3Cl)c2=O)c1` [Example 60, 4-amino-1-(2,6-dichloro-4-(methoxymethyl)phenyl)-N-(5-((ethylamino)methyl)pyridin-3-yl)-6-oxo-1,6-dihydropyrimidine-5-carboxamide], for which the IC50 at GSK3B [1] came out at 334 nM; on human GSK3α, 6.5 nM; against GSK3B [2], 200 nM; against GSK3A, 3 nM.

On to `COCc1cc(Cl)c(-n2cnc(N)c(C(=O)Nc3cncc([C@@H]4CCCCN4)c3)c2=O)c(Cl)c1` [Example 61, (S)-4-amino-1-(2,6-dichloro-4-(methoxymethyl)phenyl)-6-oxo-N-(5-(piperidin-2-yl)pyridin-3-yl)-1,6-dihydropyrimidine-5-carboxamide], for which the half-maximal inhibitory concentration (IC50) turned out to be 466 nM on GSK3B [1], 6.4 nM at human GSK3α, 284 nM on GSK3B [2] and 3.7 nM against GSK3A.

`COCc1cc(Cl)c(-n2cnc(N)c(C(=O)Nc3cncc(CNCCO)c3)c2=O)c(Cl)c1` [Example 63, 4-amino-1-(2,6-dichloro-4-(methoxymethyl)phenyl)-N-(5-(((2-hydroxyethyl)amino)methyl)pyridin-3-yl)-6-oxo-1,6-dihydropyrimidine-5-carboxamide]: the 50% inhibitory concentration (IC50) at GSK3B [1] came out at 209 nM; on human GSK3α it was 4.5 nM; against GSK3B [2] it was 234 nM; at GSK3A, 4.4 nM.

Consider `COCc1cc(Cl)c(-n2cnc(N)c(C(=O)Nc3cncc(CNC(C)C)c3)c2=O)c(Cl)c1` [Example 64, 4-amino-1-(2,6-dichloro-4-(methoxymethyl)phenyl)-N-(5-((isopropylamino)methyl)pyridin-3-yl)-6-oxo-1,6-dihydropyrimidine-5-carboxamide], for which the IC50 was 621 nM on GSK3B [1], 11.7 nM on human GSK3α, 489 nM against GSK3B [2] and 6.5 nM at GSK3A.

In the case of `COCc1cc(Cl)c(-n2cnc(N)c(C(=O)Nc3cncc(C4(N)CCC4)c3)c2=O)c(Cl)c1` [Example 65, 4-amino-N-(5-(1-aminocyclobutyl)pyridin-3-yl)-1-(2,6-dichloro-4-(methoxymethyl)phenyl)-6-oxo-1,6-dihydropyrimidine-5-carboxamide], the IC50 at GSK3B [1] turned out to be 302 nM; on human GSK3α it was 5.1 nM; against GSK3B [2], 217 nM; against GSK3A, 3.1 nM.

For `COc1cc(Cl)c(-n2cnc(N)c(C(=O)Nc3cncc([C@@H]4CCCN4)c3)c2=O)c(Cl)c1` [Example 73, (S)-4-amino-1-(2,6-dichloro-4-methoxyphenyl)-6-oxo-N-(5-(pyrrolidin-2-yl)pyridin-3-yl)-1,6-dihydropyrimidine-5-carboxamide], the IC50 on GSK3B [1] amounted to 318 nM; on human GSK3α, 6.7 nM; against GSK3B [2], 374 nM; at GSK3A, 5.8 nM.

In the case of `COC[C@@H](N)c1cncc(NC(=O)c2c(N)ncn(-c3c(Cl)cc(OC)cc3Cl)c2=O)c1` [Example 77, (S)-4-amino-N-(5-(1-amino-2-methoxyethyl)pyridin-3-yl)-1-(2,6-dichloro-4-methoxyphenyl)-6-oxo-1,6-dihydropyrimidine-5-carboxamide], the IC50 at GSK3B [1] turned out to be 152 nM; on human GSK3α, 2.2 nM; on GSK3B [2] it was 196 nM; against GSK3A, 3.5 nM.

`CCCOc1cc(Cl)c(-n2cnc(N)c(C(=O)Nc3cncc(CNCC)c3)c2=O)c(Cl)c1` [Example 86, 4-amino-1-(2,6-dichloro-4-propoxyphenyl)-N-(5-((ethylamino)methyl)pyridin-3-yl)-6-oxo-1,6-dihydropyrimidine-5-carboxamide]: the IC50 was 414 nM at GSK3B [1], 6.6 nM at human GSK3α, 321 nM on GSK3B [2] and 4.2 nM against GSK3A.

`CCOc1cc(C)c(-n2cnc(N)c(C(=O)Nc3cncc([C@H]4CCCCN4)c3)c2=O)c(C)c1` [Example 91, (R)-4-amino-1-(4-ethoxy-2,6-dimethylphenyl)-6-oxo-N-(5-(piperidin-2-yl)pyridin-3-yl)-1,6-dihydropyrimidine-5-carboxamide]: the IC50 at GSK3B [1] stood at 299 nM; on human GSK3α it was 6 nM; on GSK3B [2], 201 nM; against GSK3A, 3.7 nM.
